# Data reported in US20240384268A1, “Oligonucleotides” (Hudson Institute of Medical Research, priority 2021, published 2024).
# In the oligonucleotide strings, read from the 5' end, every base follows the letter of its sugar. An asterisk marks phosphorothioate; unmarked linkages are phosphodiester. Other units and linkages are bracketed, terminal groups are in braces. A string of capitals states the bases alone. d = 2'-deoxy (DNA); m = 2'-O-methyl
# Target: T1, TLR8 (Homo sapiens, UniProt Q9NR97)
# T1 sequence (Q9NR97 27-1041): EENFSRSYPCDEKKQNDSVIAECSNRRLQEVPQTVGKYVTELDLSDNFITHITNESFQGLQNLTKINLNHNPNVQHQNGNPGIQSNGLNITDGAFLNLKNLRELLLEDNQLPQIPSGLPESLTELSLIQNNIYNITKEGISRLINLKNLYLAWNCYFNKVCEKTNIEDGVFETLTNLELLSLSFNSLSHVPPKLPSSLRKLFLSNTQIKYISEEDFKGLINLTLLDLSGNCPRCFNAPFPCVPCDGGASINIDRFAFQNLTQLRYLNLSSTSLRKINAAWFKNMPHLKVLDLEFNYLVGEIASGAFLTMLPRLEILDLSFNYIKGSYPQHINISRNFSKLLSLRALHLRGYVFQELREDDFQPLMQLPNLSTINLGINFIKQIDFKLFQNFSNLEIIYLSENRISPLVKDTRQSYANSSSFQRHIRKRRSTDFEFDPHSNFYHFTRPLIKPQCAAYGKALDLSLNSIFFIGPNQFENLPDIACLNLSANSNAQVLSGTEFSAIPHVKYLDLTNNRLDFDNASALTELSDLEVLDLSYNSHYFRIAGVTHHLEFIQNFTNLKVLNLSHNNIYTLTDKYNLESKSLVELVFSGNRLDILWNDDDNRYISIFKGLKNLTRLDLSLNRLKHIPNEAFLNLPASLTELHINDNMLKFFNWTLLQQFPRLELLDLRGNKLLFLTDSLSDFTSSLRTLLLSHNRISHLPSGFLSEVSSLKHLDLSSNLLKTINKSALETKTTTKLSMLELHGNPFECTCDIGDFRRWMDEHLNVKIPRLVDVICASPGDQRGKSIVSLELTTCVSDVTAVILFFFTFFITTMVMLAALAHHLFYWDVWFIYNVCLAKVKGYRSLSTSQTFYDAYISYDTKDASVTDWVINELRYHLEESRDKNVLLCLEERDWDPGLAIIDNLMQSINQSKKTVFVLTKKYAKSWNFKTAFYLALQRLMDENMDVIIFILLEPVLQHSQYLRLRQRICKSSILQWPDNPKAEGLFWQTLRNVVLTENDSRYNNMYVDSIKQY
# Test: HEK-TLR8 NF-κB-luciferase reporter, R848 or Motolimod stimulation (potentiation or inhibition)
# Format: cell-based
# Set-up: expressed in transfected cells; host or cells: 293XLhTLR8 (HEK293)
# Details: HEK-TLR8; 500 nM ASO; fold increase relative to R848 without ASO (Alharbi et al., 2020)
row,Substance,TLR8-500 nM: averaged NF-κB-Luciferase relative to R848
1,"mC*mA*mC*mC*mC*T*T*C*T*C*T*C*T*G*G*mU*mC*mC*mC*mA (CACCCTTCTCTCTGGUCCCA; antisense; sugars from the 5' end m5 d10 m5, all phosphorothioate, methylation of C not given here) [[LINC-PINT]116]",5.97 fold
2,mC*mA*mC*mU*mG*T*A*T*T*T*T*A*T*T*A*mC*mA*mG*mA*mA (mC*mA*mC*mU*mG*dT*dA*dT*dT*dT*dT*dA*dT*dT*dA*mC*mA*mG*mA*mA; antisense) [[LINC-PINT]2990],4.86 fold
3,mC*mA*mG*mG*mC*C*T*C*C*A*G*T*G*T*C*mU*mU*mC*mU*mC (mC*mA*mG*mG*mC*dC*dT*dC*dC*dA*dG*dT*dG*dT*dC*mU*mU*mC*mU*mC; antisense) [[CDKN2B-AS1]2219],3.89 fold
4,mC*mA*mU*mC*mC*C*T*T*C*T*G*C*T*G*C*mC*mA*mA*mG*mC (mC*mA*mU*mC*mC*dC*dT*dT*dC*dT*dG*dC*dT*dG*dC*mC*mA*mA*mG*mC; antisense) [[LINC-PINT]98],8.23 fold
5,mC*mC*mA*mU*mC*C*C*T*T*C*T*G*C*T*G*mC*mC*mA*mA*mG (mC*mC*mA*mU*mC*dC*dC*dT*dT*dC*dT*dG*dC*dT*dG*mC*mC*mA*mA*mG; antisense) [ILING-PINT199],5.67 fold
6,"mC*mC*mA*mU*mG*T*C*C*C*A*G*G*C*C*T*mC*mC*mA*mG*mU (CCAUGTCCCAGGCCTCCAGU; sugars from the 5' end m5 d10 m5, all phosphorothioate, methylation of C not given here) [[CDKN2B-AS1]2227]",1.46 fold
7,mC*mC*mC*mU*mA*A*T*G*C*T*T*T*C*C*T*mC*mU*mC*mC*mA (mC*mC*mC*mU*mA*dA*dT*dG*dC*dT*dT*dT*dC*dC*dT*mC*mU*mC*mC*mA; antisense) [[LINC-PINT1877 KL],8.39 fold
8,mC*mC*mC*mU*mU*C*T*C*T*C*T*G*G*T*C*mC*mC*mA*mU*mC (mC*mC*mC*mU*mU*dC*dT*dC*dT*dC*dT*dG*dG*dT*dC*mC*mC*mA*mU*mC; antisense) [[LINC-PINT]114],8.12 fold
9,mC*mC*mU*mA*mG*A*A*A*G*A*A*G*C*A*A*mA*mG*mA*mU*mU (mC*mC*mU*mA*mG*dA*dA*dA*dG*dA*dA*dG*dC*dA*dA*mA*mG*mA*mU*mU) [[CDKN2B-AS1]1522],4.94 fold
10,mC*mC*mU*mU*mC*T*C*T*C*T*G*GT*C*C*mC*mA*mU*mC*mC (CCUUCTCTCTGGTCCCAUCC; antisense; chemistry not fully specified) [[LINC-PINT]113],3.51 fold
11,mC*mC*mU*mU*mC*T*G*C*T*G*C*C*A*A*G*mC*mC*mC*mC*mA (mC*mC*mU*mU*mC*dT*dG*dC*dT*dG*dC*dC*dA*dA*dG*mC*mC*mC*mC*mA; antisense) [[LINC-PINT]94],3.71 fold
12,mC*mU*mC*mU*mC*T*G*G*T*C*C*C*A*T*C*mC*mC*mU*mU*mC (mC*mU*mC*mU*mC*dT*dG*dG*dT*dC*dC*dC*dA*dT*dC*mC*mC*mU*mU*mC; antisense) [[LINC-PINT]109],10.10 fold
13,mC*mU*mU*mC*mU*C*T*C*T*G*G*T*C*C*C*mA*mU*mC*mC*mC (mC*mU*mU*mC*mU*dC*dT*dC*dT*dG*dG*dT*dC*dC*dC*mA*mU*mC*mC*mC) [[LINC-PINT]112],9.21 fold
14,mC*mU*mU*mU*mA*T*A*T*T*A*C*A*A*A*G*mC*mU*mA*mC*mU (mC*mU*mU*mU*mA*dT*dA*dT*dT*dA*dC*dA*dA*dA*dG*mC*mU*mA*mC*mU; antisense) [[LINC-PINT]2755],6.37 fold
15,"mG*mA*mA*mA*mA*G*A*T*T*A*T*C*T*T*C*mU*mU*mU*mU*mA (GAAAAGATTATCTTCUUUUA; sugars from the 5' end m5 d10 m5, all phosphorothioate, methylation of C not given here) [[CDKN2B-AS1]2134]",1.87 fold
16,"mG*mA*mU*mG*mG*T*T*C*C*A*G*T*C*C*C*mU*mC*mU*mU*mC (GAUGGTTCCAGTCCCUCUUC; antisense; sugars from the 5' end m5 d10 m5, all phosphorothioate, methylation of C not given here) [[LINC-PINT]1497.1]",1.01 fold
17,mG*mA*mU*mU*mA*A*A*A*C*A*G*A*T*T*A*mA*mU*mA*mC*mA (mG*mA*mU*mU*mA*dA*dA*dA*dC*dA*dG*dA*dT*dT*dA*mA*mU*mA*mC*mA) [[CDKN2B-AS1]1773],1.48 fold
18,"mG*mC*mA*mA*mG*G*C*A*G*A*G*A*A*A*C*mU*mC*mC*mA*mG (GCAAGGCAGAGAAACUCCAG; sugars from the 5' end m5 d10 m5, all phosphorothioate, methylation of C not given here) [[LINC-PINT]1315 KL]",2.69 fold
19,"mG*mC*mG*mU*mA*G*T*T*T*C*T*C*T*T*C*mC*mU*mC*mC*mC (GCGUAGTTTCTCTTCCUCCC; sugars from the 5' end m5 d10 m5, all phosphorothioate, methylation of C not given here) [[LINC-PINT]935 KL]",4.12 fold
20,"mG*mG*mA*mU*mU*A*A*A*A*C*A*G*A*T*T*mA*mA*mU*mA*mC (GGAUUAAAACAGATTAAUAC; sugars from the 5' end m5 d10 m5, all phosphorothioate, methylation of C not given here) [[CDKN2B-AS1]1774]",1.67 fold
21,"mG*mG*mG*mU*mC*T*C*C*T*C*C*A*C*A*C*mC*mC*mU*mU*mC (GGGUCTCCTCCACACCCUUC; antisense; sugars from the 5' end m5 d10 m5, all phosphorothioate, methylation of C not given here) [[LINC-PINT]128]",1.23 fold
22,"mG*mG*mU*mC*mC*C*A*T*C*C*C*T*T*C*T*mG*mC*mU*mG*mC (GGUCCCATCCCTTCTGCUGC; sugars from the 5' end m5 d10 m5, all phosphorothioate, methylation of C not given here) [[LINC-PINT]103]",1.87 fold
23,mG*mG*mU*mC*mU*C*C*T*C*C*A*C*A*C*C*mC*mU*mU*mC*mU (mG*mG*mU*mC*mU*dC*dC*dT*dC*dC*dA*dC*dA*dC*dC*mC*mU*mU*mC*mU; antisense) [[LINC-PINT]127],3.72 fold
24,"mG*mG*mU*mG*mG*C*C*A*C*A*G*G*C*A*A*mC*mG*mU*mC*mA (GGUGGCCACAGGCAACGUCA; antisense; sugars from the 5' end m5 d10 m5, all phosphorothioate, methylation of C not given here) [[CDKN2B-AS1]2196]",0.98 fold
25,mG*mU*mC*mA*mA*A*C*C*T*A*G*A*A*A*G*mA*mA*mG*mC*mA (mG*mU*mC*mA*mA*dA*dC*dC*dT*dA*dG*dA*dA*dA*dG*mA*mA*mG*mC*mA; antisense) [[CDKN2B-AS1]1528],1.85 fold
26,mG*mU*mC*mC*mC*A*G*G*C*C*T*C*C*A*G*mU*mG*mU*mC*mU (mG*mU*mC*mC*mC*dA*dG*dG*dC*dC*dT*dC*dC*dA*dG*mU*mG*mU*mC*mU; antisense) [[CDKN2B-AS1]2223],2.17 fold
27,"mG*mU*mC*mC*mC*A*T*C*C*C*T*T*C*T*G*mC*mU*mG*mC*mC (GUCCCATCCCTTCTGCUGCC; antisense; sugars from the 5' end m5 d10 m5, all phosphorothioate, methylation of C not given here) [[LINC-PINT]102]",5.07 fold
28,mG*mU*mC*mC*mG*T*A*C*C*T*C*C*A*C*C*mC″mA*mC*mC*mG [[LINC-PINT]727.1],3.70 fold
29,mG*mU*mC*mU*mC*C*T*C*C*A*C*A*C*C*C*mU*mU*mC*mU*mC (mG*mU*mC*mU*mC*dC*dT*dC*dC*dA*dC*dA*dC*dC*dC*mU*mU*mC*mU*mC; antisense) [[LINC-PINT]126],7.17 fold
